Results reported in article PMC7540173 (Chemistry (Weinheim an Der Bergstrasse, Germany), 2020).

Columns and labels:
human αvβ3 integrin = human αvβ3 integrin (Homo sapiens, UniProt P05106+P06756); assay: ELISA-like solid-phase integrin binding assay
human α5β1 integrin = human α5β1 integrin (Homo sapiens, UniProt P05556+P08648); assay: ELISA-like solid-phase integrin binding assay
Chain of human α5β1 integrin (P08648 42-995 limits assumed): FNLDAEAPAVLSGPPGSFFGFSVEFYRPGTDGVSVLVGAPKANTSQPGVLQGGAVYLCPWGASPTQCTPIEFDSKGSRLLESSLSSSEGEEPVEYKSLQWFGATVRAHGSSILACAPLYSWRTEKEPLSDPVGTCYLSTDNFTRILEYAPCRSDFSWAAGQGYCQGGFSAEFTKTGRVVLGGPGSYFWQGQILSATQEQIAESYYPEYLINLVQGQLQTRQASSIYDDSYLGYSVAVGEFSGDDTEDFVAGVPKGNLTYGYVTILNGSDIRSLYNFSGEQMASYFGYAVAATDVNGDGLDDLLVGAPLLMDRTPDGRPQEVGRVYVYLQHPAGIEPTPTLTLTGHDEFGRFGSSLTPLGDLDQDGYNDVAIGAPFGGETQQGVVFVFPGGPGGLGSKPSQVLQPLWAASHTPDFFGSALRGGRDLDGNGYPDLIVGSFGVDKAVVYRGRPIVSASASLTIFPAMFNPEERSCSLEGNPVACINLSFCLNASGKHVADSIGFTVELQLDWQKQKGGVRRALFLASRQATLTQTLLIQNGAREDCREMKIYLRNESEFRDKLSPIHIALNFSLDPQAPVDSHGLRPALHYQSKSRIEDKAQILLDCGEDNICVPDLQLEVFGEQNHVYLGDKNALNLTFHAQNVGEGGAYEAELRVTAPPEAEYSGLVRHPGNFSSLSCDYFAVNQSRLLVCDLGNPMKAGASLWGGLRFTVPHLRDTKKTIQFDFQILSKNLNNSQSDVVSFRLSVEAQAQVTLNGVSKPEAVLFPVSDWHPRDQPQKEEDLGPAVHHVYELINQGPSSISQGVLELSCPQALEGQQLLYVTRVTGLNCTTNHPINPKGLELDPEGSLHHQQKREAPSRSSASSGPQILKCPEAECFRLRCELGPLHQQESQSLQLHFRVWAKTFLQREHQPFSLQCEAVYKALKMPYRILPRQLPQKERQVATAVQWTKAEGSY
Chain of human α5β1 integrin (P05556 21-728 limits assumed): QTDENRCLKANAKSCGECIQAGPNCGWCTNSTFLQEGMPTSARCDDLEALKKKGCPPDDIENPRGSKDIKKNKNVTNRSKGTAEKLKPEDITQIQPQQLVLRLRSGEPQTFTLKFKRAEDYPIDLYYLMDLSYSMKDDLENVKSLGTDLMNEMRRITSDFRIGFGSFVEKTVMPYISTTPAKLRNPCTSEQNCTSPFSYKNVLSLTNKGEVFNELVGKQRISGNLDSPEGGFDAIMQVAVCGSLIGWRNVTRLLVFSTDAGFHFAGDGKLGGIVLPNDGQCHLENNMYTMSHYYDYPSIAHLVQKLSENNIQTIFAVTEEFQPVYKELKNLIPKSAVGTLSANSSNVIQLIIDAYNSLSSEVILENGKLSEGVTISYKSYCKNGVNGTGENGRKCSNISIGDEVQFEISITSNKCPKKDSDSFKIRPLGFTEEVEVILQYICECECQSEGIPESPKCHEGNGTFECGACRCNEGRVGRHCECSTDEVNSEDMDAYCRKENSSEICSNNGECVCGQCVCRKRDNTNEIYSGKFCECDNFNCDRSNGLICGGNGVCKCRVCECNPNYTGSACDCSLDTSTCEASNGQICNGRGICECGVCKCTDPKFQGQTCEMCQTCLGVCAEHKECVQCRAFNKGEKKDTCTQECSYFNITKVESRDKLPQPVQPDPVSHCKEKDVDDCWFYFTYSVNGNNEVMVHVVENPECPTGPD

Chain of human αvβ3 integrin (P06756 31-992 limits assumed): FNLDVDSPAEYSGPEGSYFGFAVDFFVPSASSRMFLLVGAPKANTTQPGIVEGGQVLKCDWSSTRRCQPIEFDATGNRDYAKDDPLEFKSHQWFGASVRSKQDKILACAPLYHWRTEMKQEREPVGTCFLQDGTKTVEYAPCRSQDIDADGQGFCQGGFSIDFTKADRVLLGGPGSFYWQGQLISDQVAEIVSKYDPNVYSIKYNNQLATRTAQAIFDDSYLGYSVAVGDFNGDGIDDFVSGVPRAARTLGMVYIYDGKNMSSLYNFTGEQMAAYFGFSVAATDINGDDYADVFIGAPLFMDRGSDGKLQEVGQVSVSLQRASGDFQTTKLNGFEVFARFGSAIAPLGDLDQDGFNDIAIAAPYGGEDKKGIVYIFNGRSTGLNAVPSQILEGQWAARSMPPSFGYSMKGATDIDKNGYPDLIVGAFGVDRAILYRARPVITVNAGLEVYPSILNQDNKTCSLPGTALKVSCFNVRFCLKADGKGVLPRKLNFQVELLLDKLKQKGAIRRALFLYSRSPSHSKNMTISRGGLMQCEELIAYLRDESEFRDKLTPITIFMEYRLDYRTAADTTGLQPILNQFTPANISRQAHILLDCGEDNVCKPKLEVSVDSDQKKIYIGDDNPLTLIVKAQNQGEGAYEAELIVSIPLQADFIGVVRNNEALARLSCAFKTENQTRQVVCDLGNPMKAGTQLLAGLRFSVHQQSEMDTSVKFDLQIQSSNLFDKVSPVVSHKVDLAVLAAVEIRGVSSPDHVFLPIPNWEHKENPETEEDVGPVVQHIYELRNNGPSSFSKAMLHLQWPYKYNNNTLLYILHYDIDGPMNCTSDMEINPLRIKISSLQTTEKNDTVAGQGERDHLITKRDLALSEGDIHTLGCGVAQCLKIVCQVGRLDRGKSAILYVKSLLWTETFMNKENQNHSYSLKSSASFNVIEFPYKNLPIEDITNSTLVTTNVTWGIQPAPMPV
Chain of human αvβ3 integrin (P05106 27-718 limits assumed): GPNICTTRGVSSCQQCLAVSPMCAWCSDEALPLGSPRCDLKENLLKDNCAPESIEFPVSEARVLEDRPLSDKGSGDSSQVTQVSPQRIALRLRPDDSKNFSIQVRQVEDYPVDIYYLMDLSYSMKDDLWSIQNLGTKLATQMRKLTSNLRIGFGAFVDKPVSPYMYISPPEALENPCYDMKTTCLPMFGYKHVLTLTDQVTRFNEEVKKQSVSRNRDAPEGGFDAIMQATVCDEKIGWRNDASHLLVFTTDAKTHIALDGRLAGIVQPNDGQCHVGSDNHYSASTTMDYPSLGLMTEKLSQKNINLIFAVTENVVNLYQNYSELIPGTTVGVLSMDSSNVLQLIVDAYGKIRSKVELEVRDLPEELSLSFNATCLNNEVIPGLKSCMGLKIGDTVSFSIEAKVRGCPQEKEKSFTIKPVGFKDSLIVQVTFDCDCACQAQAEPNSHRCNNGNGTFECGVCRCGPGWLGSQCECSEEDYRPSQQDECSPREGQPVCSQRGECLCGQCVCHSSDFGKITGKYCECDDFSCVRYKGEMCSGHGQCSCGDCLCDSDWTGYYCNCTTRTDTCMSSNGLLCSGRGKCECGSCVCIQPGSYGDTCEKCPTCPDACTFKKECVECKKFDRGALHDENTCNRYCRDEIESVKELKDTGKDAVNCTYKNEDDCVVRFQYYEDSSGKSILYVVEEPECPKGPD

Compound | IC50 (human αvβ3 integrin) | IC50 (human α5β1 integrin) | decrease in the affinities compared to their unmethylated analogues (human αvβ3 integrin; N-methyl tryptophan derivatives vs 12 a–c) | selectivity towards the integrin αVβ3 (over α5β1) (human αvβ3 integrin; ratio of IC50 α5β1 / αVβ3)
N=C(N)NCCC[C@@H]1NC(=O)CCCCCN2c3ccccc3Sc3cc(ccc32)-c2cccc3c(c[nH]c23)C[C@@H](C(N)=O)NC(=O)[C@H](CC(=O)O)NC(=O)CNC1=O [12 a, c(RGDW(7‐3Ptz^2))] | 0.33 ± 0.04 µM |  |  | 
N=C(N)NCCC[C@@H]1NC(=O)CCCCCN2c3ccccc3Sc3cc(ccc32)-c2cccc3c(c[nH]c23)C[C@H](C(N)=O)NC(=O)[C@H](CC(=O)O)NC(=O)CNC1=O [12 b, c(RGDw(7‐3Ptz^2))] | 0.6 ± 0.11 µM | 5.68 ± 1.28 µM |  | 
N=C(N)NCCC[C@@H]1NC(=O)CN2c3ccccc3Sc3cc(ccc32)-c2cccc3c(c[nH]c23)C[C@@H](C(N)=O)NC(=O)[C@H](CC(=O)O)NC(=O)CNC1=O [12 c, c(RGDW(7‐3Ptz^1))] | 0.31 ± 0.08 µM | 2.22 ± 1.04 µM |  | 
N=C(N)NCCC[C@@H]1NC(=O)CN2c3ccccc3Sc3cc(ccc32)-c2cccc3c(c[nH]c23)C[C@H](C(N)=O)NC(=O)[C@H](CC(=O)O)NC(=O)CNC1=O [12 d, c(RGDw(7‐3Ptz^1))] | 0.78 ± 0.17 µM | > 10 µM |  | 
CN1C(=O)[C@H](CC(=O)O)NC(=O)CNC(=O)[C@H](CCCNC(=N)N)NC(=O)CCCCCN2c3ccccc3Sc3cc(ccc32)-c2cccc3c(c[nH]c23)C[C@H]1C(N)=O [12 e, c(RGD(NMe)W(7‐3Ptz^2))] | 6.55 ± 0.76 µM |  | 15–20 fold | 
CN1C(=O)[C@H](CC(=O)O)NC(=O)CNC(=O)[C@H](CCCNC(=N)N)NC(=O)CN2c3ccccc3Sc3cc(ccc32)-c2cccc3c(c[nH]c23)C[C@H]1C(N)=O [12 f, c(RGD(NMe)W(7‐3Ptz^1))] | 4.52 ± 0.53 µM | > 10 µM |  | 
N#CC(C#N)=Cc1ccc2c(c1)Sc1cc3ccc1N2CCCCCC(=O)N[C@@H](CCCNC(=N)N)C(=O)NCC(=O)N[C@@H](CC(=O)O)C(=O)N[C@@H](C(N)=O)Cc1c[nH]c2c-3cccc12 [12 g, c(RGDw(7‐3Ptz^2(CH(CN)2))] | 0.961 ± 0.05 µM | > 10 µM |  | 
c(RGDW(7‐3Ptz^1(O))) [12 h] |  |  |  | ≈ 110 fold
